ChEMBL document CHEMBL1201862, “PubChem BioAssay data set” (2004)
Active and inactive are the calls of the source.

Columns and labels:
[1] = biological target: Induced myeloid leukemia cell differentiation protein Mcl-1 (Homo sapiens, UniProt Q07820); type: functional
cells [2] = assay: cells
[3] = viability of uninfected HEp-2 cells – cell-based, HTS, cytotoxicity control for RSV inhibitor project, dose response (AID 2410); type: functional; details: human respiratory syncytial virus
[4] = biological target: Peroxisome proliferator-activated receptor gamma/Nuclear receptor coactivator 3 (Homo sapiens, UniProt P37231); assay: (§1) TR-FRET dose response biochemical High Throughput Screening assay for agonists of the steroid receptor coactivator 3 (SRC-3) recruitment by the peroxisome proliferator-activated receptor gamma (PPAR gamma): non-selective agonists. [Related pubchem assays: 1301 (Confirmation screen.), 1048 (Primary screen.)]; type: functional
[5] = biological target: Peroxisome proliferator-activated receptor gamma/Nuclear receptor coactivator 1 (Homo sapiens, UniProt P37231); assay: as §1, with “1 (SRC-1)” for “3 (SRC-3)”, “assays (depositor defined):AID1300, AID1808, AID504735, AID631]” for “assays: 1301 (Confirmation screen.), 1048 (Primary screen.)]”; type: protein assay
Chain of Peroxisome proliferator-activated receptor gamma/Nuclear receptor coactivator 1 (P37231 whole entry): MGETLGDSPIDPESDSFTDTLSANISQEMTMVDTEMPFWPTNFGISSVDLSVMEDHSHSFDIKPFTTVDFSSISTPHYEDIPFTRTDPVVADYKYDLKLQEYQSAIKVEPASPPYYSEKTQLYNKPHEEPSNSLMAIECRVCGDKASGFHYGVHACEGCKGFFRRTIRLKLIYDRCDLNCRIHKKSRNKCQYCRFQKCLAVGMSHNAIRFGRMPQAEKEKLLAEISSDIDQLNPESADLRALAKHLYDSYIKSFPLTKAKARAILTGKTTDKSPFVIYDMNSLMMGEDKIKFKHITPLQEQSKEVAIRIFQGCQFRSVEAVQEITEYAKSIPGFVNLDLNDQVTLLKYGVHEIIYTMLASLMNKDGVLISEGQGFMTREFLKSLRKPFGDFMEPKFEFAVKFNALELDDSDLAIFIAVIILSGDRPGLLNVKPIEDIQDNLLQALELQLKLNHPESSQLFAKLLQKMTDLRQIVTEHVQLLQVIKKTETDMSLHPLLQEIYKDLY
Chain of Peroxisome proliferator-activated receptor gamma/Nuclear receptor coactivator 1 (Q15788 whole entry, further chain): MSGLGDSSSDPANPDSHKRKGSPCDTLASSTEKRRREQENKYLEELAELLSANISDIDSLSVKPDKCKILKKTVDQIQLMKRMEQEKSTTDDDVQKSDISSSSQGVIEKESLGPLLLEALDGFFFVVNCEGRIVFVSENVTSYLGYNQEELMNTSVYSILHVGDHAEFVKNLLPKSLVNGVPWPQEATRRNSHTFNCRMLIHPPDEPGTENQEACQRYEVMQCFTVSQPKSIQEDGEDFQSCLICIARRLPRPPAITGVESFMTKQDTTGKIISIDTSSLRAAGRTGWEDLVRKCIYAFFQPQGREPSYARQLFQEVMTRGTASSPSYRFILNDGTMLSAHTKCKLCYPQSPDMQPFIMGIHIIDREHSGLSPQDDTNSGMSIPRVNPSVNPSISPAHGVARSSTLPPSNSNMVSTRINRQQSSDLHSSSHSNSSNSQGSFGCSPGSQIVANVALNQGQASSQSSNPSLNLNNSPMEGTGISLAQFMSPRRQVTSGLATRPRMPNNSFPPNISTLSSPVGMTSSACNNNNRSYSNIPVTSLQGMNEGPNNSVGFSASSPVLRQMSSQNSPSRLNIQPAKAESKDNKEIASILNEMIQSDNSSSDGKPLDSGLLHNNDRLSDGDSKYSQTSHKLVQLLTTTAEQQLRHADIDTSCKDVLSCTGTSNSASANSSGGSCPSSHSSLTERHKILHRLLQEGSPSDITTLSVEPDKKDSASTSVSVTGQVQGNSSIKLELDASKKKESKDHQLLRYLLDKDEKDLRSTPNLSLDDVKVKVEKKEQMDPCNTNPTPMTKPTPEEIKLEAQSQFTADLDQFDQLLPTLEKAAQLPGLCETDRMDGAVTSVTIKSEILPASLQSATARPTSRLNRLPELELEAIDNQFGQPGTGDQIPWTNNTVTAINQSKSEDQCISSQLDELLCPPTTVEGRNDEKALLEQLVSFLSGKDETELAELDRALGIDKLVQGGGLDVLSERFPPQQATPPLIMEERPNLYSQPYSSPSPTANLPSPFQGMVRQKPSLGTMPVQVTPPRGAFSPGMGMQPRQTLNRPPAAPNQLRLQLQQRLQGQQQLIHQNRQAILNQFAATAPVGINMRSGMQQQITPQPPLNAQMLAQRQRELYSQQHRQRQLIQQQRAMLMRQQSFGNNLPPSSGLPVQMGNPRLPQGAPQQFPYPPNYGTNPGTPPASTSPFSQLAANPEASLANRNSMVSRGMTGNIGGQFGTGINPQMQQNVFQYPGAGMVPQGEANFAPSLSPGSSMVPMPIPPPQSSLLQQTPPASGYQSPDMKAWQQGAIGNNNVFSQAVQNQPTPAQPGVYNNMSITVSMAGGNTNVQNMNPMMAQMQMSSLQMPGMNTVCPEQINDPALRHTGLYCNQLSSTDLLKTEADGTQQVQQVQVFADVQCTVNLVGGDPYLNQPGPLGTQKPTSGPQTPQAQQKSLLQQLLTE

[6] = biological target: Peroxisome proliferator-activated receptor gamma/Nuclear receptor coactivator 2 (Homo sapiens, UniProt P37231); assay: TR-FRET dose response biochemical High Throughput Screening assay for agonists of the steroid receptor coactivator 2 (SRC-2) recruitment by the peroxisome proliferator-activated receptor gamma (PPAR gamma): non-selective agonists. [Related pubchem assays: 1297, 1032 ]; type: functional
Chain of Peroxisome proliferator-activated receptor gamma/Nuclear receptor coactivator 2 (P37231 whole entry): as the sequence (P37231 whole entry) above
Chain of Peroxisome proliferator-activated receptor gamma/Nuclear receptor coactivator 2 (Q15596 whole entry, further chain): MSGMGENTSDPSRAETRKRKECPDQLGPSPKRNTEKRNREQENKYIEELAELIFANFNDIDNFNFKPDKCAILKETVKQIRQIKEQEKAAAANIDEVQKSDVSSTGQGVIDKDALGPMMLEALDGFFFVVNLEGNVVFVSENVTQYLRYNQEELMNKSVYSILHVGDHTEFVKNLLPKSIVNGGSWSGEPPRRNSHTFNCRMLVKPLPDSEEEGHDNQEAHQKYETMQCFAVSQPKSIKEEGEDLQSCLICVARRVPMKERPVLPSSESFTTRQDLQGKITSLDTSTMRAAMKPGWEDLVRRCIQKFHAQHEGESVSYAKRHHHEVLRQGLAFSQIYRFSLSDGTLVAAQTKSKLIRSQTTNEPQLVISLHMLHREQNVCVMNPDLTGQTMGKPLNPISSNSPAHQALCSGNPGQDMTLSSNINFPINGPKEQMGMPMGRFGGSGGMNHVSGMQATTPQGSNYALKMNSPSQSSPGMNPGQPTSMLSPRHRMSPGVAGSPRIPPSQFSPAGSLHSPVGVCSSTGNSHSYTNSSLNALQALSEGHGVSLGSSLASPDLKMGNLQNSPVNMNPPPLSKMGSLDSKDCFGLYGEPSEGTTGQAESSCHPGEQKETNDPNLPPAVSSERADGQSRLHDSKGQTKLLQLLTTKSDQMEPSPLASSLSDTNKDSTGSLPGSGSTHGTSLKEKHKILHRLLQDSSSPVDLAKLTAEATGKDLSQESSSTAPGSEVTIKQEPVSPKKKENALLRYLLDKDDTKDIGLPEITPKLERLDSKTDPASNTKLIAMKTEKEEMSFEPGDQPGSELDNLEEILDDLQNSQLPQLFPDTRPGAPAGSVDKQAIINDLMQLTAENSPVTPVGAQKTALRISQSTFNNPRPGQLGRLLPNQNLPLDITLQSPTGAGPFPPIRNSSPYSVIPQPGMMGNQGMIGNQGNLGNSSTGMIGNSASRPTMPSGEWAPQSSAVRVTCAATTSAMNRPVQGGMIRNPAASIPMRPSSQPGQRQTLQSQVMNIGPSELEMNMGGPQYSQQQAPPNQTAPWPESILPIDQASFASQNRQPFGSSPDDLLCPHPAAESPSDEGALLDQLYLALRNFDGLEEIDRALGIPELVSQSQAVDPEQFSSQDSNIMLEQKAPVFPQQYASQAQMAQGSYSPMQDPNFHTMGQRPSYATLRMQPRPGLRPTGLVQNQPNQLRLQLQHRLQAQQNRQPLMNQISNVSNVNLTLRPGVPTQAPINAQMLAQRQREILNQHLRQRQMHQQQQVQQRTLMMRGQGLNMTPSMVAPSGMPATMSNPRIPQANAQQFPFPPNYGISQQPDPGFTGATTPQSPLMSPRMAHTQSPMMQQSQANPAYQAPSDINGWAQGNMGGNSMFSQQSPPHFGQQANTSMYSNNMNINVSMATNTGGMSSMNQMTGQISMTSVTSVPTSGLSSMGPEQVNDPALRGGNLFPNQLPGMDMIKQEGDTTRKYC

[7] = biological target: Glyceraldehyde-3-phosphate dehydrogenase (Homo sapiens, UniProt P04406)
Chain of Glyceraldehyde-3-phosphate dehydrogenase (P04406 whole entry): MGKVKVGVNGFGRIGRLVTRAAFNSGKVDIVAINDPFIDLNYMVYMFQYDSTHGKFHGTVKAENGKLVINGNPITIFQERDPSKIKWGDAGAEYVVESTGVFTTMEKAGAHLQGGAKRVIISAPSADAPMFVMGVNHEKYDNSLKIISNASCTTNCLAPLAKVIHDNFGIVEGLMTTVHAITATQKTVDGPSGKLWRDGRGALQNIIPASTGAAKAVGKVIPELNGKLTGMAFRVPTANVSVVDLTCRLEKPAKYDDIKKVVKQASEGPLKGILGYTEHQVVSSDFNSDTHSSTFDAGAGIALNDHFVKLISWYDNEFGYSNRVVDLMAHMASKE

[8] = biological target: FAD-linked sulfhydryl oxidase ALR (Homo sapiens, UniProt P55789); assay: ALR-catalysed DTT oxidation blockers – biochemical, H2O2 detection, luminescence, cherry-pick, dose response (AID 493248)
Chain of FAD-linked sulfhydryl oxidase ALR (P55789 whole entry): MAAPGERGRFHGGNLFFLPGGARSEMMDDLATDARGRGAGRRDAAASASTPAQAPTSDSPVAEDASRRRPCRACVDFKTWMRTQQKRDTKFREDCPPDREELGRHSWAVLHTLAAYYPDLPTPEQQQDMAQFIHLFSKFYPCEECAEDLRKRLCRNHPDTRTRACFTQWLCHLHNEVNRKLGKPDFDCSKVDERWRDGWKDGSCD

[9] = HPDE-C7 pancreatic duct cell viability loss – fluorescence, HTS (AID 430); type: functional, cell-based; details: Homo sapiens
[10] = viability loss of HPDE-C7K cells – cell-based, fluorescence, HTS, primary screen (AID 431); type: functional; details: Homo sapiens
cells [11] = assay: cells; remark: listed apart in the source
[12] = NIH3T3 cell viability loss – ATP luminescence, mouse fibroblasts, counter-screen, dose response (AID 2010); type: functional, cell-based;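 further: cells exposed to compound for about 90 hours before reading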
[13] = Trypanosoma cruzi growth suppression in host cells – NIH3T3 host cells, beta-gal luminescence, confirmation (AID 2044); type: functional, cell-based;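 further: intracellular parasites grown in NIH/3T3 mouse fibroblasts as host cells; luminescent beta-galactosidase reporter signal from transgenic T. cruzi replicating inside host cells; inhibitors lower the luminescence signal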
[14] = biological target: T1, Short transient receptor potential channel 4 (Mus musculus, UniProt Q9QUQ5); assay: block of DAMGO-driven TRPC4 calcium entry – cell-based, HEK293 TRPC4/mu-opioid, Fluo-4 calcium, dose response (AID 434942); type: functional;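 further: potency of inhibitors blocking the TRPC4 calcium response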
T1 sequence (Q9QUQ5 whole entry): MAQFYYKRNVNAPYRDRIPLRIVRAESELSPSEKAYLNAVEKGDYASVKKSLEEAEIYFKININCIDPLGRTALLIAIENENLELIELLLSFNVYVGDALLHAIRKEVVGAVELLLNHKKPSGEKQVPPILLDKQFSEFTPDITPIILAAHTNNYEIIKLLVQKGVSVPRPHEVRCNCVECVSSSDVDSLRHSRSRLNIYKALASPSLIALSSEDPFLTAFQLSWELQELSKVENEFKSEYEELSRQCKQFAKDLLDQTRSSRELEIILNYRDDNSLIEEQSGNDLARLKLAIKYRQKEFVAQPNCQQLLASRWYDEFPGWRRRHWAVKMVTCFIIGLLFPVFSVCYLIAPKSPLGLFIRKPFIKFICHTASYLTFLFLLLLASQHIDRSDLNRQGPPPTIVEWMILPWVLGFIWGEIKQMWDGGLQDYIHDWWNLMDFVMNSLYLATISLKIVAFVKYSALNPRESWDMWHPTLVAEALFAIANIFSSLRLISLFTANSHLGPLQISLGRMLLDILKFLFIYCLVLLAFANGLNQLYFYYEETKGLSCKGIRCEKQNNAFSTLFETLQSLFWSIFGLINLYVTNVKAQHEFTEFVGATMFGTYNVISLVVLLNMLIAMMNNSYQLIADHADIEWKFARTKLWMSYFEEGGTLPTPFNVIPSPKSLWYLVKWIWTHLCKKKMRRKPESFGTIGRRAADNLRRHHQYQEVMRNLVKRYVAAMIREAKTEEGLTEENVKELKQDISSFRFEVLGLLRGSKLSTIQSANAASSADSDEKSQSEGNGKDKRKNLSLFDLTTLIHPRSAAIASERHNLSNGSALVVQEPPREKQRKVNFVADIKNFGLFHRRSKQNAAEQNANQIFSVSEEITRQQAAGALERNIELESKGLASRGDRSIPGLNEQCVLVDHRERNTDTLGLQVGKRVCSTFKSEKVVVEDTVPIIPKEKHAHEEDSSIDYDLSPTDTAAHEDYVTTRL

[15] = THP-1 cell cytotoxicity, dose response, cytotoxicity control for non-replicating M. tuberculosis project (AID 489025); type: functional
cells [16] = type: functional
[17] = biological target: T2, RNA-binding protein pos-1 (Caenorhabditis elegans, UniProt G5EF15); assay: disruptors of C. elegans POS-1 RNA interaction – biochemical, fluorescence polarization, dose response (AID 1964);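 further: purified POS-1 fused to maltose binding protein made in E. coli; potency of compounds blocking POS-1 binding to fluorescent RNA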
T2 sequence (G5EF15 whole entry): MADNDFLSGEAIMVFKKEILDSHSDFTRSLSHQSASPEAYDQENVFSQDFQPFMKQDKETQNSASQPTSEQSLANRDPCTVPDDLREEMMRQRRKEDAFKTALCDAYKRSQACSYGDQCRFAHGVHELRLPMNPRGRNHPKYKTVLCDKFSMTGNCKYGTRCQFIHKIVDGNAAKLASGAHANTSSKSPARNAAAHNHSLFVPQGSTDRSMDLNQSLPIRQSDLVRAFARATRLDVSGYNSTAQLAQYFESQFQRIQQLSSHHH

Large T antigen = Large T antigen (Simian virus 40, UniProt P03070); type: functional, Betapolyomavirus macacae;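 further: Confirmatory-stage PubChem screen for compounds that inhibit SV40 T antigen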
Genome polyprotein = Genome polyprotein (dengue virus type 2, UniProt P29990); assay: flavivirus cap methylation enzyme inhibition – biochemical, confirmation dose response, primary screen (AID 588689); type: functional
[18] = biological target: T3, Zinc finger protein mex-5 (Caenorhabditis elegans, UniProt Q9XUB2); assay: potency of MEX-5 RNA-binding blockers – biochemical, C. elegans, fluorescence polarization, dose response (AID 1960)
T3 sequence (Q9XUB2 whole entry): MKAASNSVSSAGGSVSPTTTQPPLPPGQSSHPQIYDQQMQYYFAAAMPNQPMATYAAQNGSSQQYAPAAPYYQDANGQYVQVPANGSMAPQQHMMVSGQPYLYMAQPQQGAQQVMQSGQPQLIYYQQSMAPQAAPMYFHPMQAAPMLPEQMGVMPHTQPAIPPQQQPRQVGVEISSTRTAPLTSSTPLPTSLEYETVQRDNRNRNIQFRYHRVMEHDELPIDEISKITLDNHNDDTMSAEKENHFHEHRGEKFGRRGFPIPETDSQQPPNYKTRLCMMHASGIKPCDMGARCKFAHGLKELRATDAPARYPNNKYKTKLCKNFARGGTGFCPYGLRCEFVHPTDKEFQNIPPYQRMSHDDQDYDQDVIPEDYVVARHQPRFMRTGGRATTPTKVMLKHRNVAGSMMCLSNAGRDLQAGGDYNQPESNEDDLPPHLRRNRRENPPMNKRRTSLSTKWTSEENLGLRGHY

H4 = assay: Luminescence Cell-Based Dose Response HTS to Identify Activators of 5'UTR Stem-Loop Driven Prion Protein mRNA Translation in H4 Neuroglioblastoma Cells. [Related pubchem assays: 1829 (Project Summary), 1814 (Primary HTS)]; type: functional; details: Homo sapiens
[19] = biological target: T4, Microphthalmia-associated transcription factor (Homo sapiens, UniProt O75030); assay: reducers of TRPM1 reporter luminescence, concentration series – cell-based, SK-MEL-5, cherry-picked, set 3, MITF inhibitor project, dose response (AID 493073); type: functional;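 further: SK-MEL-5 melanoma cells with luciferase driven by the MITF target TRPM1 promoter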
T4 sequence (O75030 whole entry): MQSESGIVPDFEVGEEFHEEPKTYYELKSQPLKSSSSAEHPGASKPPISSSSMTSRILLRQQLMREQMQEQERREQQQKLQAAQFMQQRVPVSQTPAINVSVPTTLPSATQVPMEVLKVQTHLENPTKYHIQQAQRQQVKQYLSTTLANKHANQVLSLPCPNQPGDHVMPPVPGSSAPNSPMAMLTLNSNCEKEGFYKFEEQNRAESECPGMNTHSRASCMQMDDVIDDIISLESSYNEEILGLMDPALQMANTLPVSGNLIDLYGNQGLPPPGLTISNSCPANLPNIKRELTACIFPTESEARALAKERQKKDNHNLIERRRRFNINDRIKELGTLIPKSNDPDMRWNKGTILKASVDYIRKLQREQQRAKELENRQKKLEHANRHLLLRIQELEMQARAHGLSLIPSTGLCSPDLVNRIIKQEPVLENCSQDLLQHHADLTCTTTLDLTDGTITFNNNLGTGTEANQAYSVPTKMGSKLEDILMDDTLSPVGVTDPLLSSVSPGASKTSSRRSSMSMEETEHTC

BJ [20] = assay: BJ-TERT fibroblast viability loss – cell-based, RAS-independent, luminescence, dose response (AID 1933); type: functional; details: Homo sapiens
cells [21] = type: functional, cell-based
[22] = loss of viability in HepG2 cells – cell-based, CellTiter-Glo, cherry-picked, cytotoxicity control for Shn3 inhibitor project, dose response (AID 624134); type: functional
cells [23] = type: functional, cell-based; remark: listed apart in the source
BJ [24] = assay: cells; type: functional, cell-based; details: Homo sapiens
[25] = reduction of Shn3 3'UTR-driven luciferase in osteoblasts – cell-based, Clone20 osteoblasts, firefly luciferase, cherry-picked, dose response (AID 624132); type: functional;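 further: firefly luciferase luminescence from reporter carrying the Shn3 3'UTR in osteoblasts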
[26] = Luminescence Cell-Based Dose Confirmation HTS to Identify Activators of 5'UTR Stem-Loop Driven Alpha-Synuclein mRNA Translation in H4 Neuroglioblastoma Cells. [Related pubchem assays: 1829 (Project Summary), 1814 (Primary HTS)]; type: functional
[27] = Luminescence Cell-Based Dose Response HTS to Identify Activators of Luciferase Translation or Activity in H4 […] Cells. [Related pubchem assays: 1829 (Project Summary), 1814 (Primary HTS)]; type: functional
[28] = non-specific 3'UTR reporter inhibition in Clone20-Shn3RL – cell-based, Renilla luciferase, cherry-picked, counter-screen for Shn3 inhibitor project, dose response (AID 624133); type: functional
[29] = DRD fibroblast viability loss – cell-based, non-viral oncogenic, luminescence, dose response (AID 1934); type: functional; details: Homo sapiens
BJ [30] = assay: BJ-TERT-LT-ST fibroblast viability loss – cell-based, RAS-independent, luminescence, dose response (AID 1935); type: functional; details: Homo sapiens;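 further: BJ fibroblasts immortalized with TERT plus LT and ST oncogenes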
[31] = viability of PTEN-deleted HCT116 cells – cell-based, HCT116 PTEN knockout, dose response (AID 1047); type: functional;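 further: HCT116 colon tumor cells with PTEN knocked out; cells exposed to compound for 60 hours before readout; potency for loss of cell viability measured by luminescence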
[32] = viability of HCT116 lacking mutant beta-catenin – cell-based, human colon tumor, dose response (AID 1045); type: functional;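 further: HCT116 colon tumor cells with beta catenin knocked out; cells exposed to compound for 60 hours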
H9c2 = assay: cells; type: functional, cell-based; details: Rattus norvegicus, H9c2, Myocardium;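 further: confirmatory concentration-response retest of ultra-high-throughput screening hits for modulation of myocardial damage; cell death induced by hydrogen peroxide oxidative stress; compound pretreatment for 60 min then peroxide exposure for 2 h; potency is for protecting the cells against peroxide damage rather than for killing them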

Chain of Induced myeloid leukemia cell differentiation protein Mcl-1 (Q07820 whole entry): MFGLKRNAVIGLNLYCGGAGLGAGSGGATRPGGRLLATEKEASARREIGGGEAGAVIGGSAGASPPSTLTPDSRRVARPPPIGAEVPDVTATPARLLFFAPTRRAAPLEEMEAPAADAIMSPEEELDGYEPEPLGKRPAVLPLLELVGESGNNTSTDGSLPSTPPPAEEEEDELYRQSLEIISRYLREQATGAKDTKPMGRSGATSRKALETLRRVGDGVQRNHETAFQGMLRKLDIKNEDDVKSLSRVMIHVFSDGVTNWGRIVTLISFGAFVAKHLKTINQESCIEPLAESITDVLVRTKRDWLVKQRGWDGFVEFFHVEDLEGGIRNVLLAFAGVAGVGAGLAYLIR

CCN(CC)c1nc2c3c(nc4c(c3c1C#N)CC(=O)N4c1ccc(Cl)cc1)NC(C)=N2
IC50 [1]: 2.18 µM (active)

COC(=O)C1=C(C)N(Cc2ccccc2)C(=O)N[C@H]1c1cccc(C(F)(F)F)c1
IC50 (cells [2]): 8.17 µM (active)
CC50 [3]: 32.9 µM (active)

CC(C)(C)CC(=O)NC(=S)NCCc1ccccc1
IC50 (cells [2]): 18.4 µM (active)
CC50 [3]: 39.4 µM (active)

Cn1c(=O)cc(SCC(=O)NCc2cccnc2)c2ccccc21
EC50 [4]: > 79.4 µM (not active)
EC50 [5]: > 79.4 µM (inactive)
EC50 [6]: > 79.4 µM (not active)

Cc1ccc(C2=NC(=O)/C(=C/C=C/c3ccc([N+](=O)[O-])o3)S2)cc1
IC50 [7]: > 100 µM (not active)

CCC(C(=O)Nc1nnc(-c2ccco2)s1)c1ccccc1 (configuration not stated)
EC50 [4]: > 79.4 µM (not active)
EC50 [5]: > 79.4 µM (inactive)
EC50 [6]: 43.6 µM (not active)

O=C(CN1CCN(c2ccc(O)cc2)CC1)Nc1cc([N+](=O)[O-])ccc1Cl
AC50 [8]: 1.24 µM (active)
IC50 [1]: 5.07 µM (active)

O=C(CCN1CCc2ccccc2C1)c1ccc2c(c1)OCCO2
EC50 [9]: 9.07 µM (active)
EC50 [10]: 11.5 µM (active)

Cc1ccc(-n2c(S)nnc2-c2ccccc2)cc1
EC50 [4]: > 79.4 µM (not active)
EC50 [5]: 33.6 µM (inactive)
EC50 [6]: 18.4 µM (not active)

CN(CC1CCCN(CCc2cccc(C(F)(F)F)c2)C1)C(=O)c1cc2ccccc2o1 (configuration not stated)
EC50 (cells [11]): 0.082 µM (active)
EC50 [12]: 8.57 µM (active)
EC50 [13]: < 0.1 µM (active)
EC50 [14]: 0.668 µM (active)

O=[N+]([O-])c1cc(C(F)(F)F)ccc1N1CCC(O)CC1
IC50 (cells [2]): 19.8 µM (active)
CC50 [3]: 47.2 µM (active)

COc1cccc(N2C(=O)NC(=O)/C(=C/c3ccc([N+](=O)[O-])s3)C2=O)c1
CC50 [15]: 37.1 µM (active)
IC50 (cells [16]): 27.6 µM (active)
EC50 [17]: 34.4 µM (active)
IC50 (Large T antigen): 47.3 µM (active)
IC50 (Genome polyprotein): 38 µM (active)
EC50 [18]: 27.2 µM (active)
CC50 [3]: 13.8 µM (active)

COc1cc(/C=C/C(=O)c2ccc3c(c2)OCCO3)cc(Br)c1OCC(=O)N(C)C
EC50 (H4): > 120 µM (not active)
AC50 [19]: 6.17 µM (active)
EC50 (BJ [20]): 4.75 µM (active)
EC50 (cells [21]): > 350 µM (not active)
AC50 [22]: 14.2 µM (active)
EC50 (cells [23]): > 350 µM (not active)
EC50 (BJ [24]): 3.4 µM (inconclusive)
AC50 [25]: 2.63 µM (active)
EC50 [26]: 5.83 µM (active)
EC50 [27]: 14.4 µM (active)
AC50 [28]: 8.52 µM (active)
EC50 [29]: 5.43 µM (inconclusive)
EC50 (BJ [30]): 5.55 µM (inconclusive)

CN(C)C1=C(Cl)C(=O)N(c2cccc(C(F)(F)F)c2)C1=O
IC50 [7]: > 50 µM (inconclusive)

C=CCn1cnc2c(c1=O)c1nc3ccccc3nc1n2/N=C/c1cc(OC)c(OC)c(OC)c1
EC50 [9]: 11.2 µM (active)
EC50 [31]: 4.4 µM (active)
EC50 [32]: 4.67 µM (active)
IC50 (H9c2): > 79 µM (inactive)
EC50 [10]: 5.68 µM (active)

COc1cc(S(=O)(=O)Nc2cccnc2)c(OC)cc1Cl
IC50 [7]: > 100 µM (not active)
